Reference: patent US20050271721A1, “Carvedilol-hydrophilic solutions” (priority 2000, published 2005)

Key:
[1] = resorption after peroral administration of rapid release carvedilol formulations; assay type: in vivo; conditions: e.g. the commercial formulation
Excerpt: In the case of the peroral administration of rapid release carvedilol formulations, e.g. the commercial formulation, resorption quotas of up to 80% are achieved, with a considerable part of the resorbed carvedilol being very rapidly metabolized.

[2] = investigations into the gastrointestinal resorption of carvedilol; assay type: in vivo; conditions: passage through the gastrointestinal tract
[3] = dissolution of carvedilol in melted polyethylene glycol 6,000; assay type: physicochemical; conditions: polyethylene glycol 6,000 melted at about 70° C.
Procedure: Thus, carvedilol can be dissolved in polyethylene glycol 6,000 which is melted at about 70° C. In this manner there are obtained highly concentrated solutions of carvedilol (up to 500 mg/ml), with the carvedilol being present distributed as a molecular dispersion in the solution. Moreover, further additives, for example cellulose derivatives such as hydroxypropylmethylcelluloses or hydroxypropylcelluloses, can be admixed in order to control the release rate of the active substance. Further, the compositions in accordance with the invention can contain highly dispersed silicon dioxide as an anti-caking agent.

[4] = solubility of carvedilol in aqueous media; assay type: physicochemical; conditions: about pH 1-2

COc1ccccc1OCCNCC(O)COc1cccc2[nH]c3ccccc3c12 (stereo not shown) [carvedilol, 1-(4-carbazolyloxy)-3-[2-(2-methoxyphenoxy)ethyl-amino]-2-propanol]
resorption quota [1]: up to 80% | resorption in the ileum and colon relative to the stomach [2]: only a fraction of the resorption in the stomach | concentration of the carvedilol solution (molecular dispersion) [3]: up to 500 mg/ml | solubility in the strongly acidic region [4]: very low solubility
